# Test results: PMC12458683, “Water-Based Pharmacophore Modeling in Kinase Inhibitor Design: A Case Study on Fyn and Lyn Protein Kinases” (Journal of Chemical Information and Modeling, 2025)
# Experiments:
# Lyn (h) = biological target: T1, Lyn (h) (Homo sapiens, UniProt P07948); test: radiometric kinase assay ([gamma-33P]-ATP, filter binding), 9-point dilution; format: biochemical
# T1 construct: Eurofins KinaseProfiler enzyme
# From the text: radiometric kinase assay ([gamma-33P]-ATP, filter binding), 9-point dilution on Lyn (h)
# Fyn (h) = biological target: T2, Fyn (h) (Homo sapiens, UniProt P06241); test: as above; format: biochemical
# T2 construct: Eurofins KinaseProfiler enzyme
# From the text: radiometric kinase assay ([gamma-33P]-ATP, filter binding), 9-point dilution on Fyn (h)
# T2 sequence (P06241 2-537): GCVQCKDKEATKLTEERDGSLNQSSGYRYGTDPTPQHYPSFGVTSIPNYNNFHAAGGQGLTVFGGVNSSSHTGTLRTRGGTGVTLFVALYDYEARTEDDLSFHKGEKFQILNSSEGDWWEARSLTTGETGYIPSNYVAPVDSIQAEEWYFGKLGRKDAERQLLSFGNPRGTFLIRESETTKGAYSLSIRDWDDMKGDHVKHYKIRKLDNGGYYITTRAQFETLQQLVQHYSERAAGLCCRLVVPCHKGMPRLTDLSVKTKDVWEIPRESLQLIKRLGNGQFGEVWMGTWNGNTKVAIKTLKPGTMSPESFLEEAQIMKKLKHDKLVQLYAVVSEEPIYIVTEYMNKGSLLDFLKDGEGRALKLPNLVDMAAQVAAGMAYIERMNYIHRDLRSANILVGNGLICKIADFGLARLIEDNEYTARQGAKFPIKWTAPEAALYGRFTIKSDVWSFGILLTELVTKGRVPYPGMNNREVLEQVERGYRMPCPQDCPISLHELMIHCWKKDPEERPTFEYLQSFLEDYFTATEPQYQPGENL
# T1 sequence (P07948 2-512): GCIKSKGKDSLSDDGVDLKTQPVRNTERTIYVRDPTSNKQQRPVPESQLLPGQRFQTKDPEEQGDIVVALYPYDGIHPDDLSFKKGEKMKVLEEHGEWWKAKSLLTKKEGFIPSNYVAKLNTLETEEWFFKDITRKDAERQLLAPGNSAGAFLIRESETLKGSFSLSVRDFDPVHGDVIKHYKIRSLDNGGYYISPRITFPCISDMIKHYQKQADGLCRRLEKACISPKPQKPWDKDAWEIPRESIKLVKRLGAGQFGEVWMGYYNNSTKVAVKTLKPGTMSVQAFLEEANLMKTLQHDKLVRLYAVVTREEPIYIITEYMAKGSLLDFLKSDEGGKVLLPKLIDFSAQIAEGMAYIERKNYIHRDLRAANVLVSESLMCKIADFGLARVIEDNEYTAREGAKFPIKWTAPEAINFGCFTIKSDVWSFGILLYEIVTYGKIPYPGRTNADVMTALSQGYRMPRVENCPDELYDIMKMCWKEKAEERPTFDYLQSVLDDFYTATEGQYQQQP
smiles,measurement,setting,value
COc1cc(O)c2c(=O)c(-c3ccc(O[C@@H]4O[C@H](CO)[C@@H](O)[C@H](O)[C@H]4O)cc3)coc2c1 [compound 1],IC50,Lyn (h),4.39 µM
same,IC50,Fyn (h),8.66 µM
